Type in all cases: biochemical
For one assay, the target named is T1, Gelatinase -72 KD (Homo sapiens, UniProt P08253).
T1 sequence (P08253 110-660): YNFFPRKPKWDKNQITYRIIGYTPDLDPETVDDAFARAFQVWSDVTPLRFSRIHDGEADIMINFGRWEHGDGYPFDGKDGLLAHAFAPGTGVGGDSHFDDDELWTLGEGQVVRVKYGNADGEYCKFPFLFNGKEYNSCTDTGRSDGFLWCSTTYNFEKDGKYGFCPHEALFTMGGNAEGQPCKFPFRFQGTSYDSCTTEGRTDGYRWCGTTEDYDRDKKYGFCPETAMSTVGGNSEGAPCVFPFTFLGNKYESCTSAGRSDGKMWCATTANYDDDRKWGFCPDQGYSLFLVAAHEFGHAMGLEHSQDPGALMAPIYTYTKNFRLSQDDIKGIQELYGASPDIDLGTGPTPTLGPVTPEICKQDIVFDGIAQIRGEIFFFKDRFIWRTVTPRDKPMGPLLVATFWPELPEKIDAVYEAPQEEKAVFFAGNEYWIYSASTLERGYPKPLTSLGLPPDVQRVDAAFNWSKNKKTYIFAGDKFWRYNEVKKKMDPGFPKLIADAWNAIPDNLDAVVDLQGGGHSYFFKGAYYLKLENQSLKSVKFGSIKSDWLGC
The assay is described as follows: Fluorimetric enzyme inhibition assay with peptide substrate (Example A), gelatinase. The following applies: true Ki from plot of Ki (app) vs. [S], y-axis intercept; pH 7.5, overnight. On the procedure: (§1) All enzyme assays to determine Ki values were performed using the peptide substrate Dnp-Pro-Leu-Gly-Trp-Ala-D-Arg-NH2. (M. Sharon Stock and Rober D. Gray, JBC 264, 4277-81, 1989). The enzymes cleave at the Gly-Leu bond which can be followed fluorimetrically by measuring the increase in Trp fluorescence emission associated with the removal of the quenching dinitrophenol (Dnp) group.
(§2) Essentially, enzyme (e.g. gelatinase, stromelysin, coilagenase) at 0.08-2 nM; a range of inhibitor concentrations (0.1-50×Ki) and substrate (approx. 20 μm) are incubated overnight in 0.1M Tris/HCl buffer, pH 7.5, containing 0.1M NaCl, 10 mM CaCl2 and 0.05%. Brij 35 at either room temperature or 37° C. depending on the enzyme. The reaction is stopped by adjusting the pH to 4 using 0.1M sodium acetate buffer and the fluorescence read at an excitation wavelength of 280nm and emission wavelength of 346nm.
(§3) Ki values can be established using the equation for tight-binding inhibition: [formula] where Vo is the initial rate of reaction in the absence of inhibitor, Vi is the initial rate in the presence of inhibitor, [E] is the total enzyme concentration and [I] the total inhibitor concentration in the reaction mixture.
(§4) For stromelysin and collagenase, Ki (app) was assumed to approximate to the true Ki as [S]<<Km for the substrate hydrolysis. For gelatinase the Ki was determined by performing the analyses at several substrate concentrations. A plot of Ki (app) vs. [S] then gave the true Ki as the value of the y-axis intercept.

A further assay concerns the target Stromelysin-1 (Homo sapiens, UniProt P08254). The assay is described as follows: Fluorimetric enzyme inhibition assay with peptide substrate (Example A), stromelysin-1. The settings on record: Ki (app) assumed to approximate true Ki; substrate approx. 20 μm, pH 7.5, overnight. As to the method: as §1, §2, §3, §4
A further assay addresses Collagenase. Description: Fluorimetric enzyme inhibition assay with peptide substrate (Example A), collagenase. The following applies: Ki (app) assumed to approximate true Ki; substrate approx. 20 μm, pH 7.5, overnight. On the procedure:
as §1, §2, §3, §4

Among the data in patent US5569665A, “Peptidyl derivatives and their use as metalloproteinases inhibitors” (Celltech Limited, priority 1992, dated 1996) are Ki values, retold here.

Where a name gives a salt, the structure may show the parent alone.

Chain of Stromelysin-1 (P08254 100-477, species assumed): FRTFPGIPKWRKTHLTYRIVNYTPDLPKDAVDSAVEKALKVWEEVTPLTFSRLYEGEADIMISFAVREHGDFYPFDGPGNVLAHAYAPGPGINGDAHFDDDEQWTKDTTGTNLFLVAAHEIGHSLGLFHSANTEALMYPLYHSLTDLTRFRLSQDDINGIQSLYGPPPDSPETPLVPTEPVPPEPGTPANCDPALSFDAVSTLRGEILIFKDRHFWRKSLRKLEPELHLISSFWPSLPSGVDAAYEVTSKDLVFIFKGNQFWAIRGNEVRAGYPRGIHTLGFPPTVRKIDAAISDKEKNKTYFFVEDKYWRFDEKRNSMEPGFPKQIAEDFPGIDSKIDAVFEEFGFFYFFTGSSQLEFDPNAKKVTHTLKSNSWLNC

As for `O=C(O)C[C@@H](CCOc1ccccc1)C(=O)N[C@@H](CC1CCCCC1)C(=O)NCCc1ccccc1` [Example 2], the Ki at Gelatinase -72 KD is 22.2 nM; at Stromelysin-1, 1510 nM; on Collagenase, 48800 nM.
Consider `O=C(C[C@@H](CCOc1ccccc1)C(=O)N[C@@H](CC1CCCCC1)C(=O)NCCc1ccccc1)NO` [Example 3, 4-(N-Hydroxyamino)-2-(R)-(3-(2-phenoxyethyl)succinyl)-L-β-cyclohexylalanine-N-(2-phenylethyl)amide], for which the figures for the Ki on Gelatinase -72 KD, at Stromelysin-1 and on Collagenase were 0.273 nM, 29.7 nM and 478 nM, respectively.
Consider `O=C(C[C@@H](CCCc1ccncc1)C(=O)N[C@@H](CC1CCCCC1)C(=O)NCCc1ccccc1)NO` [Example 5, {4-(N-hydroxyamino)-2(R)-(3-(4-pyridinium)propyl)succinyl}-L-β-cyclohexylalanine-N-(2-phenylethyl)amide trifluoroacetate], for which the results for the Ki at Gelatinase -72 KD, on Stromelysin-1 and on Collagenase were 0.035 nM, 12.6 nM and 186 nM, respectively.
On to `C[n+]1ccc(CCC[C@H](CC(=O)NO)C(=O)N[C@@H](CC2CCCCC2)C(=O)NCCc2ccccc2)cc1` [Example 6, {4-(N-hydroxyamino)-2-(R)-3-(N-methyl-4-pyridinium)propylsuccinyl}-L-β-cyclohexylalanine-N-(2-phenylethyl)amide iodide], for which the Ki at Gelatinase -72 KD was determined as 8.42 nM; at Stromelysin-1, 681 nM; at Collagenase, 22000 nM.
In the case of `NS(=O)(=O)c1ccc(CCNC(=O)[C@H](CC2CCCCC2)NC(=O)[C@H](CCCc2ccncc2)CC(=O)NO)cc1` [Example 8, {4-(N-Hydroxyamino)-2-(R)-(3-(4-pyridinium)propyl)succinyl}-L-β-cyclohexylalanine-N-(2-(p-sulphonamidophenyl)ethyl)amide trifluoroacetate], the Ki at Gelatinase -72 KD was 0.059 nM; at Stromelysin-1, 11.8 nM; on Collagenase, 215 nM.
